Measured values published in ChEMBL document CHEMBL3217670, “Structures and biofilm inhibition activities of brominated furanones for Escherichia coli and Pseudomonas aeruginosa” (Medchemcomm, 2013).
Values belong to the compound of their own block, whether it stands above or below them. Activity calls are given as the source filed them. No cut-off for these calls is given here.

Key:
[1] = target: T1, Transcriptional activator protein LasR (Pseudomonas aeruginosa (strain ATCC 15692 / PAO1 / 1C / PRS 101 / LMG12228)) (UniProt P25084); assay: Antagonist activity at Pseudomonas aeruginosa PAO1 LasR expressing lasI coexpressing LVA-GFP at 100 to 200 uM after 24 hrs by fluorescence assay
T1 sequence (whole entry): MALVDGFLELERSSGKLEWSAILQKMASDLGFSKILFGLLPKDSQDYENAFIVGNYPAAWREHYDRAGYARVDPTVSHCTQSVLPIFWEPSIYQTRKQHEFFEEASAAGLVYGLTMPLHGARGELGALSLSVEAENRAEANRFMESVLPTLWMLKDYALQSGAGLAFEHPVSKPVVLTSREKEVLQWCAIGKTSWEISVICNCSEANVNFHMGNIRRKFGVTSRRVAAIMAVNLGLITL

[2] = test system: Escherichia coli; assay: Inhibition of biofilm formation in sdiA-knockout Escherichia coli AY1297 at 200 uM after 24 hrs by scanning electron microscopic analysis; type: functional, organism-based
[3] = test system: Escherichia coli; assay: Ratio of inhibition of biofilm formation in sdiA-knockout Escherichia coli AY1297 to inhibition of biofilm formation in wild-type Escherichia coli RP437; type: functional
[4] = test system: Escherichia coli; assay: Inhibition of biofilm formation in sdiA-knockout Escherichia coli AY1297 expressing red fluorescent protein assessed as reduction in biomass at 200 uM after 24 hrs by confocal laser scanning microscopic analysis relative to control; type: functional; settings: AY1297, 24 h
[5] = test system: Escherichia coli; assay: Inhibition of biofilm formation in wild-type Escherichia coli RP437 expressing red fluorescent protein assessed as thickness of biofilm at 200 uM after 24 hrs by confocal laser scanning microscopic analysis (reference value: 253 micrometer); type: functional
[6] = test system: Escherichia coli; assay: Inhibition of biofilm formation in sdiA-knockout Escherichia coli AY1297 at 200 uM after 24 hrs by crystal violet staining-based assay relative to control; type: functional
[7] = test system: Escherichia coli; assay: Inhibition of biofilm formation in sdiA-knockout Escherichia coli AY1297 expressing red fluorescent protein assessed as thickness of biofilm at 200 uM after 24 hrs by confocal laser scanning microscopic analysis (reference value: 157 micrometer); type: functional
[8] = test system: Escherichia coli; assay: Inhibition of biofilm formation in wild-type Escherichia coli RP437 at 200 uM after 24 hrs by scanning electron microscopic analysis; type: functional, organism-based
[9] = test system: Pseudomonas aeruginosa; assay: Antimicrobial activity against wild-type Pseudomonas aeruginosa PAO1 assessed as inhibition of planktonic growth at 200 uM measured for 2 to 24 hrs; type: organism-based; settings: in vivo
[10] = target: T2, HTH-type quorum-sensing regulator RhlR (Pseudomonas aeruginosa (strain ATCC 15692 / PAO1 / 1C / PRS 101 / LMG12228)) (UniProt P54292); assay: Agonist activity at Pseudomonas aeruginosa PAO1 RhlR expressing rhlI coexpressing LVA-GFP at 100 to 200 uM after 24 hrs by fluorescence assay
T2 sequence (whole entry): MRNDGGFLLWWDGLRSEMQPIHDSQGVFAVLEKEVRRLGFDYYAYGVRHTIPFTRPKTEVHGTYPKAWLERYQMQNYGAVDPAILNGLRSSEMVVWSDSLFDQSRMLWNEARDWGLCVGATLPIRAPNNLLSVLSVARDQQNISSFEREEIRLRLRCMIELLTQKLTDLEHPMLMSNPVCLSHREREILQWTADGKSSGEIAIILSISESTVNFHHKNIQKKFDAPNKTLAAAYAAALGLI

[11] = test system: Escherichia coli; assay: Inhibition of biofilm formation in wild-type Escherichia coli RP437 expressing red fluorescent protein assessed as effect on surface area of biofilm at 200 uM after 24 hrs by confocal laser scanning microscopic analysis; type: functional, organism-based
[12] = test system: Pseudomonas aeruginosa; assay: Inhibition of biofilm formation in wild-type Pseudomonas aeruginosa PAO1 at 200 uM after 24 hrs by crystal violet staining-based assay relative to control; type: functional
[13] = test system: Pseudomonas aeruginosa; assay: Inhibition of biofilm formation in wild-type Pseudomonas aeruginosa PAO1 expressing red fluorescent protein assessed as reduction in biomass at 200 uM after 24 hrs by confocal laser scanning microscopic analysis relative to control; type: functional
[14] = test system: Escherichia coli; assay: Antimicrobial activity against sdiA-knockout Escherichia coli AY1297 assessed as inhibition of planktonic growth at 200 uM measured for 2 to 24 hrs; type: organism-based; settings: in vivo
[15] = test system: Escherichia coli; assay: Antimicrobial activity against wild-type Escherichia coli RP437 assessed as inhibition of planktonic growth at 200 uM measured for 2 to 24 hrs; type: organism-based; settings: in vivo
[16] = test system: Escherichia coli; assay: Inhibition of biofilm formation in wild-type Escherichia coli RP437 at 200 uM after 24 hrs by crystal violet staining-based assay relative to control; type: functional
[17] = test system: Escherichia coli; assay: Inhibition of biofilm formation in wild-type Escherichia coli RP437 expressing red fluorescent protein assessed as reduction in biomass at 200 uM after 24 hrs by confocal laser scanning microscopic analysis relative to control; type: functional; settings: RP437, 24 h
[18] = test system: Pseudomonas aeruginosa PAO1; assay: Inhibition of quorum sensing system-mediated elastase B production in Pseudomonas aeruginosa PAO1 at 200 uM after 24 hrs by colorimetric assay relative to control
[19] = test system: Escherichia coli; assay: Inhibition of biofilm formation in sdiA-knockout Escherichia coli AY1297 expressing red fluorescent protein assessed as effect on surface area of biofilm at 200 uM after 24 hrs by confocal laser scanning microscopic analysis; type: functional, organism-based
[20] = test system: Pseudomonas aeruginosa; assay: Antimicrobial activity against wild-type Pseudomonas aeruginosa PAO1 assessed as inhibition of planktonic growth at 100 uM measured for 2 to 24 hrs; type: organism-based; settings: in vivo
[21] = test system: Pseudomonas aeruginosa; assay: Inhibition of biofilm formation in wild-type Pseudomonas aeruginosa PAO1 at 50 uM; type: functional, organism-based
[22] = test system: Escherichia coli; assay: Inhibition of biofilm formation in wild-type Escherichia coli RP437 at 100 uM; type: functional, organism-based
[23] = test system: Escherichia coli; assay: Antimicrobial activity against wild-type Escherichia coli RP437 assessed as inhibition of planktonic growth at 1 to 100 uM measured for 2 to 24 hrs; type: organism-based; settings: in vivo
[24] = test system: Pseudomonas aeruginosa; assay: Inhibition of biofilm formation in wild-type Pseudomonas aeruginosa PAO1 expressing red fluorescent protein assessed as effect on thickness of biofilm at 200 uM after 24 hrs by confocal laser scanning microscopic analysis; type: functional, organism-based
[25] = test system: Pseudomonas aeruginosa; assay: Inhibition of biofilm formation in wild-type Pseudomonas aeruginosa PAO1 expressing red fluorescent protein assessed as effect on surface area of biofilm at 200 uM after 24 hrs by confocal laser scanning microscopic analysis; type: functional, organism-based
[26] = test system: Escherichia coli; assay: Inhibition of biofilm formation in wild-type Escherichia coli RP437 at 300 uM after 24 hrs by crystal violet staining-based assay relative to control; type: functional; settings: RP437, 24 h
[27] = test system: Pseudomonas aeruginosa; assay: Antimicrobial activity against wild-type Pseudomonas aeruginosa PAO1 assessed as inhibition of planktonic growth at 300 uM measured for 2 to 24 hrs; type: organism-based; settings: in vivo
[28] = test system: Escherichia coli; assay: Antimicrobial activity against sdiA-knockout Escherichia coli AY1297 assessed as inhibition of planktonic growth at 300 uM measured for 2 to 24 hrs; type: organism-based; settings: in vivo
[29] = test system: Escherichia coli; assay: Inhibition of biofilm formation in sdiA-knockout Escherichia coli AY1297 at 300 uM after 24 hrs by crystal violet staining-based assay relative to control; type: functional; settings: AY1297, 24 h
[30] = test system: Escherichia coli; assay: Antimicrobial activity against wild-type Escherichia coli RP437 assessed as inhibition of planktonic growth at 300 uM measured for 2 to 24 hrs; type: organism-based; settings: in vivo
[31] = test system: Pseudomonas aeruginosa; assay: Antimicrobial activity against wild-type Pseudomonas aeruginosa PAO1 assessed as inhibition of planktonic growth at 1 to 100 uM measured for 2 to 24 hrs; type: organism-based; settings: in vivo
[32] = test system: Pseudomonas aeruginosa; assay: Inhibition of biofilm formation in wild-type Pseudomonas aeruginosa PAO1 at 100 uM; type: functional, organism-based

inhibition [1]: Active | Activity [10]: Active | inhibition [18]: 43%
Structure (SMILES): CC1=C(Br)/C(=C\Br)OC1=O
inhibition [2]: inactive | Ratio [3]: 2 | inhibition at 200 µM [4]: 36% | Activity [5]: 126 um | inhibition at 200 µM ([6]; AY1297, 24 h): 18% | Activity [7]: 137 um | inhibition [8]: Active | growth inhibition (GI) [9]: Non-toxic | inhibition [11]: Active | inhibition at 200 µM ([12]; PAO1, 24 h): 43% | inhibition at 200 µM ([13]; PAO1, 24 h): 41% | growth inhibition (GI) [14]: Non-toxic | growth inhibition (GI) [15]: Non-toxic | inhibition at 200 µM ([16]; RP437, 24 h): 50% | inhibition at 200 µM [17]: 53% | inhibition [19]: Active

Structure (SMILES): O=C1C=C/C(=C/Br)O1
Activity [20]: Toxic | growth inhibition (GI) [9]: Toxic | inhibition [21]: inactive | growth inhibition (GI) [14]: Non-toxic | growth inhibition (GI) [15]: Toxic | inhibition [22]: inactive | Activity [23]: Non-toxic

inhibition [1]: Active | Activity [10]: Active | inhibition [18]: 41%
Structure (SMILES): C/C(Br)=C1\C=CC(=O)O1
inhibition [24]: inactive | Ratio [3]: 2 | inhibition [25]: inactive | inhibition [6]: inactive | inhibition at 300 µM [26]: 34% | inhibition [12]: inactive | inhibition [13]: inactive | growth inhibition (GI) [27]: Non-toxic | inhibition [16]: inactive | growth inhibition (GI) [28]: Non-toxic | inhibition at 300 µM [29]: 26% | growth inhibition (GI) [30]: Non-toxic

Structure (SMILES): O=C1C=C(Br)/C(=C/Br)O1
Activity [31]: Non-toxic | growth inhibition (GI) [9]: Non-toxic | growth inhibition (GI) [14]: Toxic | inhibition [32]: inactive | growth inhibition (GI) [15]: Toxic | inhibition [22]: inactive | Activity [23]: Non-toxic
